Calls of active or inactive are those of the source. The rule behind the calls is not given here.
How the values were obtained:
A-431 = test: Antiproliferative activity against human A-431 cells measured after 72 hrs by MTT assay; format: functional, cell-based; conditions: A-431, 72 h
HT-29 = test: Antiproliferative activity against human HT-29 cells measured after 72 hrs by MTT assay; format: functional, cell-based; conditions: HT-29, 72 h
HeLa = test: Antiproliferative activity against human HeLa cells measured after 72 hrs by MTT assay; format: functional, cell-based
K562 = test: Antiproliferative activity against human K562 cells measured after 72 hrs by MTT assay; format: functional, cell-based; conditions: K562, 72 h
MDA-MB-231 = test: Antiproliferative activity against human MDA-MB-231 cells measured after 72 hrs by MTT assay; format: functional, cell-based; conditions: MDA-MB-231, 72 h
HepG2 [1] = test: Antiproliferative activity against human HepG2 cells measured after 72 hrs by MTT assay; format: functional, cell-based; conditions: HepG2, 72 h
HepG2 [2] = test: Induction of apoptosis in human HepG2 cells assessed as increase in cleaved caspase-3 expression at 1.25 to 20 uM measured after 48 hrs by Western blot analysis; format: functional, cell-based; conditions: dose 1.25-20 µM
[3] = Effect on H3 expression in human HepG2 cells at 1.25 to 25 uM measured after 24 hrs by Western blot analysis; format: toxicity, cell-based; conditions: hepg2, 24 h, dose 1.25-25 µM
HepG2 [4] = test: Induction of apoptosis in human HepG2 cells assessed as viable cells at 1.25 uM measured after 48 hrs by Annexin V-FITC/propidium iodide staining based flow cytometry (reference value: 88.58%); format: functional; conditions: read-out: Activity
HepG2 [5] = test: Induction of apoptosis in human HepG2 cells assessed as early apoptotic cells at 1.25 uM measured after 48 hrs by Annexin V-FITC/propidium iodide staining based flow cytometry (reference value: 6.87%); format: functional
HepG2 [6] = test: Induction of apoptosis in human HepG2 cells assessed as late apoptotic cells at 1.25 uM measured after 48 hrs by Annexin V-FITC/propidium iodide staining based flow cytometry (reference value: 4.55%); format: functional
HepG2 [7] = test: Induction of apoptosis in human HepG2 cells assessed as viable cells at 2.5 uM measured after 48 hrs by Annexin V-FITC/propidium iodide staining based flow cytometry (reference value: 88.58%); format: functional; conditions: read-out: Activity
HepG2 [8] = test: Induction of apoptosis in human HepG2 cells assessed as necrotic cells at 2.5 uM measured after 48 hrs by Annexin V-FITC/propidium iodide staining based flow cytometry (reference value: 0%); format: functional
HepG2 [9] = test: Induction of apoptosis in human HepG2 cells assessed as viable cells at 5 uM measured after 48 hrs by Annexin V-FITC/propidium iodide staining based flow cytometry (reference value: 88.58%); format: functional; conditions: read-out: Activity
HepG2 [10] = test: Induction of apoptosis in human HepG2 cells assessed as early apoptotic cells at 5 uM measured after 48 hrs by Annexin V-FITC/propidium iodide staining based flow cytometry (reference value: 6.87%); format: functional
HepG2 [11] = test: Induction of apoptosis in human HepG2 cells assessed as late apoptotic cells at 5 uM measured after 48 hrs by Annexin V-FITC/propidium iodide staining based flow cytometry (reference value: 4.55%); format: functional
HepG2 [12] = test: Induction of apoptosis in human HepG2 cells assessed as viable cells at 10 uM measured after 48 hrs by Annexin V-FITC/propidium iodide staining based flow cytometry (reference value: 88.58%); format: functional; conditions: read-out: Activity
HepG2 [13] = test: Induction of apoptosis in human HepG2 cells assessed as early apoptotic cells at 10 uM measured after 48 hrs by Annexin V-FITC/propidium iodide staining based flow cytometry (reference value: 6.87%); format: functional
HepG2 [14] = test: Induction of apoptosis in human HepG2 cells assessed as late apoptotic cells at 10 uM measured after 48 hrs by Annexin V-FITC/propidium iodide staining based flow cytometry (reference value: 4.55%); format: functional
HepG2 [15] = test: Induction of apoptosis in human HepG2 cells assessed as early apoptotic cells at 20 uM measured after 48 hrs by Annexin V-FITC/propidium iodide staining based flow cytometry (reference value: 6.87%); format: functional
HepG2 [16] = test: Induction of apoptosis in human HepG2 cells assessed as late apoptotic cells at 20 uM measured after 48 hrs by Annexin V-FITC/propidium iodide staining based flow cytometry (reference value: 4.55%); format: functional
HepG2 [17] = test: Induction of apoptosis in human HepG2 cells assessed as necrotic cells at 20 uM measured after 48 hrs by Annexin V-FITC/propidium iodide staining based flow cytometry (reference value: 0%); format: functional
HepG2 [18] = test: Induction of apoptosis in human HepG2 cells measured after 48 hrs by Annexin V-FITC/propidium iodide staining based flow cytometry; format: functional, cell-based; conditions: dose 1.25-25 µM, DDE = dose-dependent effect
HepG2 [19] = test: Induction of apoptosis in human HepG2 cells assessed as increase in cleaved caspase-7 expression at 1.25 to 20 uM measured after 48 hrs by Western blot analysis; format: functional, cell-based; conditions: dose 1.25-20 µM
HepG2 [20] = test: Induction of apoptosis in human HepG2 cells assessed as increase in cleaved caspase-9 expression at 1.25 to 20 uM measured after 48 hrs by Western blot analysis; format: functional, cell-based; conditions: dose 1.25-20 µM
HepG2 [21] = test: Cell cycle arrest in human HepG2 cells assessed as accumulation at G0/G1 phase at 2.5 uM measured after 48 hrs by propidium iodide staining based flow cytometry (reference value: 55.24%); format: functional
HepG2 [22] = test: Cell cycle arrest in human HepG2 cells assessed as accumulation at G2/M phase at 2.5 uM measured after 48 hrs by propidium iodide staining based flow cytometry (reference value: 12.37%); format: functional
HepG2 [23] = test: Cell cycle arrest in human HepG2 cells assessed as accumulation at S phase at 2.5 uM measured after 48 hrs by propidium iodide staining based flow cytometry (reference value: 32.39%); format: functional
HepG2 [24] = test: Cell cycle arrest in human HepG2 cells assessed as accumulation at G2/M phase at 5 uM measured after 48 hrs by propidium iodide staining based flow cytometry (reference value: 12.37%); format: functional
HepG2 [25] = test: Cell cycle arrest in human HepG2 cells assessed as accumulation at S phase at 5 uM measured after 48 hrs by propidium iodide staining based flow cytometry (reference value: 32.39%); format: functional
HepG2 [26] = test: Cell cycle arrest in human HepG2 cells assessed as accumulation at G0/G1 phase at 10 uM measured after 48 hrs by propidium iodide staining based flow cytometry (reference value: 55.24%); format: functional
HepG2 [27] = test: Cell cycle arrest in human HepG2 cells assessed as accumulation at G2/M phase at 10 uM measured after 48 hrs by propidium iodide staining based flow cytometry (reference value: 12.37%); format: functional
HepG2 [28] = test: Cell cycle arrest in human HepG2 cells assessed as increase in p21 expression measured after 24 hrs by Western blot analysis; format: functional, cell-based; conditions: dose 1.25-20 µM, DDE = dose-dependent effect
HepG2 [29] = test: Antiinvasive activity against human HepG2 cells at 20 uM measured after 24 hrs by trans-well assay; format: functional, cell-based; conditions: DDE = dose-dependent effect
HepG2 [30] = test: Inhibition of colony formation in human HepG2 cells measured after 24 hrs; format: functional, cell-based; conditions: dose 1.25-20 µM, DDE = dose-dependent effect
[31] = Metabolic stability in rat liver microsomes assessed as parent compound remaining at 1 uM measured after 30 mins by LC-MS/MS analysis; format: ADME, Microsome; conditions: read-out: Stability
[32] = Intrinsic clearance in rat liver microsomes at 1 uM by LC-MS/MS analysis; format: ADME, Microsome; conditions: read-out: CLH

Q: Which results are given for `COc1cc2nc(N3CCN(CCCCCC(=O)NO)CC3)nc(NC3CCN(Cc4ccccc4)CC3)c2cc1OC`?
A: IC50 (A-431): 2380 nM; IC50 (HT-29): 6.99 µM; IC50 (HeLa): 3.34 µM; IC50 (K562): 2600 nM; IC50 (MDA-MB-231): 9.3 µM; IC50 (HepG2 [1]): 2740 nM; Activity (HepG2 [2]): Active; Activity [3]: Non-Toxic; viability at 1.25 µM (HepG2 [4]): 88.5%; Activity (HepG2 [5]): 8.83%; Activity (HepG2 [6]): 2.68%; viability at 2.5 µM (HepG2 [7]): 87.5%; Activity (HepG2 [8]): 0%; viability at 5 µM (HepG2 [9]): 87.3%; Activity (HepG2 [10]): 8.59%; Activity (HepG2 [11]): 4.14%; viability at 10 µM (HepG2 [12]): 77.8%; Activity (HepG2 [13]): 16.02%; Activity (HepG2 [14]): 6.17%; Activity (HepG2 [15]): 49.75%; Activity (HepG2 [16]): 17.12%; Activity (HepG2 [17]): 0%; Activity (HepG2 [18]): Dde; Activity (HepG2 [19]): Active; Activity (HepG2 [20]): Active; Activity (HepG2 [21]): 57.88%; Activity (HepG2 [22]): 13.29%; Activity (HepG2 [23]): 28.84%; Activity (HepG2 [24]): 13.12%; Activity (HepG2 [25]): 28.81%; Activity (HepG2 [26]): 59.81%; Activity (HepG2 [27]): 15.52%; Activity (HepG2 [28]): Dde; Activity (HepG2 [29]): Dde; inhibition (HepG2 [30]): Dde; remaining at 0.5 h, 1 µM [31]: 26.8%; CLint scaled at 1 µM [32]: 155 mL/min/kg

Source: ChEMBL document CHEMBL5143537, “Quinazoline-based hydroxamic acid derivatives as dual histone methylation and deacetylation inhibitors for potential anticancer agents” (Bioorg Med Chem, 2022)
